The values below come from article PMC2947157, “Development of a FLIPR Assay for the Simultaneous Identification of MrgD Agonists and Antagonists from a Single Screen” (Journal of Biomedicine and Biotechnology, 2010).

The target in one assay is T1, rat MrgD (Rattus norvegicus, UniProt Q7TN41).
T1 construct: expressed in transfected cells
T1 sequence (Q7TN41 1-319): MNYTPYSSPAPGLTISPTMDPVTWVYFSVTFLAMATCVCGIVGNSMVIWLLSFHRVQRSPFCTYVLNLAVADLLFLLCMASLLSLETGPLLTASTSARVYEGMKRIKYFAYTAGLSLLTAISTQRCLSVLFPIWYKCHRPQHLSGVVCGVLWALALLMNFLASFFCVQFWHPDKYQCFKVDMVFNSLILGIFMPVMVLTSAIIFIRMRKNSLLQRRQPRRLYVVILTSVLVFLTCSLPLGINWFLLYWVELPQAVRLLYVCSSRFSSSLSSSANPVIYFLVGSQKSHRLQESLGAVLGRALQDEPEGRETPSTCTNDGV
Put plainly: Calcium mobilization FLIPR assay, agonist dose-response, CHO-DUKX cells expressing rat MrgD. The assay is classed as cell-based. As to conditions: for EC50 / EC50 Rat MrgD: CHO-DUKX cells, FLIPR, Table 1: mean ± SD from 2–6 independent experiments; for FLIPR response in rat MrgD expressing cells: result in words. The protocol:
(§1) A Kozak sequence and HA epitope tag were incorporated in the forward primer. […] A Kozak sequence and c-Myc epitope tag were incorporated in the forward primer. The resulting PCR products were cloned into the Xba I and EcoR I sites of pHTOP vector, a proprietary derivative of the pED expression vector [12]. For transfection, CHO-DUKX-A2 cells (DHFR(−) CHO cell line stably expressing the tetracycline transactivator) were grown in M alpha media containing 1% MEM nonessential amino acids solution (NEAA), 10% fetal bovine serum (FBS), and 500 ug/mL G418. MrgDpHTOP was transfected using Lipofectamine Plus reagents as per the manufacturer's recommendations. Antibiotic selection was performed using Dulbecco's modified Eagle medium supplemented with 10% FBS, 100 units/mL penicillin, 100 μg/mL streptomycin, 1% NEAA, and 20 nM methotrexate (Calbiochem, San Diego, CA). Cell lines were maintained at 37°C in a humidified atmosphere containing 5% CO2. Surviving colonies were expanded further and used for functional analysis. Clones of human MrgD expressing cell lines were evaluated initially for MrgD transcript level by Taqman analysis and normalized against the house-keeping gene GAPDH (Glyceraldehyde-3-phosphate dehydrogenase).
(§2) CHO-DUKX-A2 cells stably expressing human or rat MrgD were plated in 384-well tissue-culture-treated polystyrene black clear flat-bottom assay plates (BD Biosciences, San Jose, CA). Thirty μL of 8 × 10^5 cells/mL (24,000 cells/well) were plated and maintained for ~24 hrs at 37°C in a humidified atmosphere containing 5% CO2. After removal of the growth medium, cells were incubated with 30 μL of Ca3 dye (Molecular Devices Corporation, Sunnyvale, CA) containing 2.5 mM freshly prepared probenecid made according to the manufacturer's protocol. Agonists were prepared in 1x Hanks balanced salt solution (HBSS) buffer with 20 mM HEPES buffer. Changes in intracellular Ca^2+ were monitored using the Fluorometric Imaging Plate Reader (FLIPR; Molecular Devices, Sunnyvale, CA). For the double addition protocols, compounds were added by the FLIPR, and readings were taken for 3 min, followed by the addition of the agonist. The change in intracellular calcium [Ca^2+] was monitored as an increase in relative fluorescence units (RFUS), and the difference between maximum and minimum RFU was used to calculate dose-response curves. Data analysis was performed using PRISM 4.0 (GraphPAD Software Inc.). For the LOPAC screen, cells were plated in 96-well tissue-culture-treated polystyrene black clear flat-bottom assay plates (BD Biosciences, San Jose, CA). One hundred μL of cells (40,000 cells/well) were plated and maintained under the same conditions as above. For the assay, growth medium was replaced with 90 μL of Ca3 dye containing 2.5 mM freshly prepared probenecid. The FLIPR added 10 μL of beta-alanine at 100 μM final concentration. For antagonist dose-response assays, the cells were incubated with the compounds for ~30 minutes after which beta-alanine at a final concentration of 10 μM was added by the FLIPR.

Assay [1] deals with T2, MrgD (Homo sapiens, UniProt Q8TDS7).
T2 construct: expressed in transfected cells
Put plainly: Calcium mobilization FLIPR assay, agonist dose-response, CHO-DUKX cells expressing human MrgD. Format: cell-based. Conditions: for FLIPR response in human MrgD expressing cells: result in words. The protocol: as §1, §2
Target sequence in this assay (Q8TDS7 whole entry): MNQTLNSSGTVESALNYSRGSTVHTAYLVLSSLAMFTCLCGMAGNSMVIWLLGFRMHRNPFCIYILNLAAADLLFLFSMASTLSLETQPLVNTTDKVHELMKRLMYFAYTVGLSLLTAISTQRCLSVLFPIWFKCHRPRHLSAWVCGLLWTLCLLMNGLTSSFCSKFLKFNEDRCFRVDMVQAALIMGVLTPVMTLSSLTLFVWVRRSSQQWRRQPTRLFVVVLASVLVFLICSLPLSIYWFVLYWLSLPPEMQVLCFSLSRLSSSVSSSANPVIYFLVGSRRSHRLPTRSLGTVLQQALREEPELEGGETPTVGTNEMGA

The subject of assay [2] is MrgD expressing cell lines. As to conditions: read-out: EC50 for MrgD expressing cell lines, cited from earlier work.
Assay [3] addresses T2, MrgD. Put plainly: Dual-addition FLIPR LOPAC library screen (test compound, then beta-alanine). Format: cell-based. Conditions: dual-addition format; for Calcium mobilization following addition of beta-alanine (addition 2) in LOPAC screen: beta-alanine 100 μM, Figure 4(b). The protocol: as §2
Target sequence in this assay (Q8TDS7 whole entry, species assumed): as the sequence (Q8TDS7 whole entry) above
We developed an assay that could allow both agonists and antagonists to be distinguished in a single screen. Employing such an assay format should enable the identification of tool compounds that may help in elucidating the role of MrgD in pain. The diagram in Figure 3 describes the dual-addition assay format where addition of the test compound (addition 1) is followed by the addition of beta-alanine (addition 2). A FLIPR response immediately upon the addition of a test compound would indicate its activity as an agonist. On the other hand, if the compound behaves as an antagonist, not only will there be a lack of response to this test compound, it will also attenuate the effects of the subsequent addition of beta-alanine. In the event of no receptor engagement by the test compound, a normal agonist response will be observed to beta-alanine. We validated this assay format, which was robust and consistent with a Z′ factor greater than 0.7.
Figure 3 Assay format for the identification of an agonist and antagonist from a single screen. Test compound is added first followed by a second addition of beta-alanine. An agonist will induce a FLIPR response immediately upon the addition of a test compound. An antagonist will cause a pharmacological blockade of the MrgD receptor resulting in attenuation or complete lack of response to beta-alanine. In the event of no receptor engagement, a normal agonist response will be observed from beta-alanine addition.
Figure 4 Representative FLIPR traces obtained from LOPAC screen. Compounds from the LOPAC library were applied followed by the addition of beta-alanine. […]

Assay [4] addresses T2, MrgD. The experiment in a line: FLIPR antagonist dose-response assay against beta-alanine. As to conditions: beta-alanine 10 μM, ~30 min preincubation. Format: cell-based. How it is done:
as §2
Target sequence in this assay (Q8TDS7 whole entry, species assumed): as the sequence (Q8TDS7 whole entry) above

The subject of assay [5] is beta-alanine-induced calcium mobilization in MrgD CHO-DUKX cells. Put plainly: Evaluation of Gi and Gq coupling of MrgD by FLIPR response to beta-alanine. The assay is classed as cell-based. As to conditions: 100 μM beta-alanine. How it is done: MrgD is known to couple through both Gi and Gq. To further explore the utility of the cell line for a potential secondary assay measuring cAMP, we investigated whether the FLIPR assay was capable of distinguishing the extent of Gi and Gq coupling of MrgD. MrgD CHO-DUKX cells were treated with either the Gi inhibitor pertussis toxin (PTX) overnight or the phospholipase C (PLC) inhibitor U-73122 for 30 or 60 minutes and then evaluated for their responses to beta-alanine.
Figure 2 Evaluation of Gq (Figure 2(a)) and Gi (Figure 2(b)) coupling of MrgD receptors assessed using FLIPR response. MrgD cells were pretreated with the PLC inhibitor (U-73122 at 2 μM for 30 or 60 minutes) or pertussis toxin (100 ng overnight) for blocking Gi coupling to MrgD. FLIPR responses were evaluated by the addition of 100 μM beta-alanine.

The mark [6] stands for this setting: CHO-DUKX cells, FLIPR, Table 1: mean ± SD from 2–6 independent experiments, read-out: EC50 Human MrgD.
Where [7] appears, read: HA 966 racemate and enantiomers, species not stated at place, racemate value equals human MrgD value of Table 2, read-out: EC50 as MrgD agonist (Figure 5(a)).
The mark [8] stands for this setting: CHO-DUKX cells, FLIPR, Table 1: mean ± SD from 2–6 independent experiments.
Where [9] appears, read: unit inferred, read-out: IC50 as MrgD antagonist (dose response analysis).

“And” between values parts separate entries of the source, which are not always exact repeats. Identical values can stand only once. Counter-ions that a name gives are not always drawn. Like-named read-outs stand apart in the source and are kept apart here.

For “5, 7 dihydroxytryptamine creatinine sulfate”, the EC50 at rat MrgD was determined as 9.7 µM; at MrgD [1] (setting [6]) it was 5.2 µM.
Consider `NC1CCN(O)C1=O` (racemic) [(±) HA 966], for which the results for the EC50 on rat MrgD and on MrgD [1] (setting [6]) were 13.2 µM and 11 µM, respectively.
As to `NC1CCN(O)C1=O` (single isomer, unassigned; (+)) [(+) HA 966], the concentration for a half-maximal effect (EC50) on MrgD [1] (setting [7]) is 106 µM.
The same measure, in the same setting: to `NC1CCN(O)C1=O` (single isomer, unassigned; (-)) [(−) HA 966] belongs 5.5 µM.
As to `NCCC(=O)O` [Beta-alanine], the EC50 is 15 ± 1 µM in assay [2] (ref 9); 8.6 µM in assay [2] (ref 11); 1 to 4 µM and 3.77 µM at rat MrgD; 1 to 4 µM and 3.76 µM on MrgD [1] (setting [6]).
In the case of `NCCCC(=O)O` [GABA, gamma-aminobutyric acid], on MrgD [3] (Figure 4(a)), the “Response to test compound (addition 1) in LOPAC screen” value is “evoked a response”. Moreover, at rat MrgD, the EC50 amounted to 49.8 ± 1.5 µM and the “FLIPR response in rat MrgD expressing cells” value is recorded as “weakly stimulated”. Moreover, the EC50 on MrgD [1] (setting [6]) is 53 ± 26 µM. For the same compound, the “FLIPR response in human MrgD expressing cells” value on MrgD [1] was “weakly stimulated”.
Turning to `NCC1(CC(=O)O)CCCCC1` [Gabapentin], at rat MrgD, the “EC50 Rat MrgD” value was “No effect” and the “FLIPR response in rat MrgD expressing cells” value was “failed to induce a response”. The “EC50 Human MrgD” value at MrgD [1] (setting [8]) was “No effect”. For the same compound, at MrgD [1], the “FLIPR response in human MrgD expressing cells” value is reported as “failed to induce a response”.
As for `NCC(=O)O` [Glycine], at rat MrgD, the concentration giving a half-maximal response (EC50) was > 100 µM and the “FLIPR response in rat MrgD expressing cells” value is on record as “not”. The concentration giving a half-maximal response (EC50) on MrgD [1] (setting [6]) is > 100 µM. Further, the “FLIPR response in human MrgD expressing cells” value at MrgD [1] is given as “not”.
On to `CC(C)C[C@H](CN)CC(=O)O` [Pregabalin], for which, at rat MrgD, the “EC50 Rat MrgD” value is “No effect” and the “FLIPR response in rat MrgD expressing cells” value is given as “failed to induce a response”. For the same compound, at MrgD [1] (setting [8]), the “EC50 Human MrgD” value was “No effect”. The “FLIPR response in human MrgD expressing cells” value at MrgD [1] is on record as “failed to induce a response”.
For `CCCN1CCc2cccc3c2[C@H]1Cc1ccc(O)c(O)c1-3.Cl` [R(−)-Propylnorapomorphine hydrochloride], the “Calcium mobilization following addition of beta-alanine (addition 2) in LOPAC screen” value (from here on “Calcium mobilization following addition”) on MrgD [3] is listed as “attenuation or complete absence of calcium mobilization”. Besides, the half-maximal inhibitory concentration (IC50) at MrgD [4] (setting [9]) was 1.46 µM.
With `COc1ccc2c(c1)CC[C@@H]1[C@@H]2CC[C@]2(C)[C@@H](NCCCCCCN3C(=O)C=CC3=O)CC[C@@H]12` [U-73122], the “Effect on FLIPR response to beta-alanine” value in assay [5] (U-73122 at 2 μM for 30 or 60 minutes) is on record as “completely blocked”.
Take `CCCn1c(=O)c2[nH]c(-c3ccc(OCC(=O)NCCN)cc3)nc2n(CCC)c1=O` [Xanthine amine congener]: the EC50 was 48.3 µM on rat MrgD and > 100 µM at MrgD [1] (setting [6]).
For the compound `CN(C)CCCN1c2ccccc2Sc2ccc(Cl)cc21` [chlorpromazine hydrochloride], the “Calcium mobilization following addition” value on MrgD [3] was “attenuation or complete absence of calcium mobilization”. Moreover, on MrgD [4] (read-out: IC50 as MrgD antagonist (Figure 5 legend)), the IC50 was determined as 2.7 µM.
With `CN[C@@H]1C[C@@H](c2ccc(Cl)c(Cl)c2)c2ccccc21` [indatraline hydrochloride], the “Calcium mobilization following addition” value on MrgD [3] was “attenuation or complete absence of calcium mobilization”.
As for `CSc1ccc2c(c1)N(CCC1CCCCN1C)c1ccccc1S2` (centres unmarked) [thioridazine hydrochloride], on MrgD [3], the “Calcium mobilization following addition” value is “attenuation or complete absence of calcium mobilization”. Further, the 50% inhibitory concentration (IC50) on MrgD [4] (setting [9]) is 1.06 µM.
Regarding pertussis toxin [PTX], the “Reduction in calcium mobilization” value in assay [5] (pertussis toxin 100 ng overnight) was ~50%.
